Data from patent US7442680B2, “Inotropic and diuretic effects of GLP-1 and GLP-1 agonists” (Amylin Pharmaceuticals, Inc., priority 1998, dated 2008).
Like-named read-outs stand apart in the source and are kept apart here. Where no end group is shown, it is not given here.

Key:
[1] = administered through the jugular vein; cited from earlier work
[2] = test system: Harlan Sprague Dawley rats; assay: Arterial blood pressure and dP/dt in conscious rats by telemetry; assay type: in vivo, rat; settings: single intraperitoneal injection
Text: Insertion of Transducers: Male, Harlan Sprague Dawley rats were anesthetized with halothane and the abdominal aorta exposed after laparotomy. According to procedures detailed in the “Pressure Telemetry” manual from Data Sciences Inc., pressure transducer/transmitters were secured in place on the abdominal wall with the catheter tip in the abdominal aorta ˜2 mm above bifurcation. Following closure, the animals then recovered to allow at least 7 days of stable recordings. Baseline data were collected during the 7+days after surgery.
Measurement of blood pressure and dP/dt: After obtaining a stable baseline, rats received an intraperitoneal (ip) injection of GLP-1, exendin or vehicle alone (NaCl). The transmitted signals were recorded via telemetry and stored on a personal computer. Rate of pressure change, dP/dt, was calculated by software provided by Data Sciences.
GLP-1: Animals received a single intraperitoneal (ip) injection of saline or GLP-1 (100 μl), n=7-8.

[3] = cited from earlier work
[4] = test system: Harlan Sprague Dawley rats; assay: Diuretic effects of GLP-1 or exendin in anesthetized rats (urine flow, sodium excretion, urinary potassium); assay type: in vivo, rat; settings: intravenous bolus
Method: In Vivo Studies in Anesthetized rats: Male, Harlan Sprague Dawley rats were housed at 23±1° C. in a 12:12 hour light:dark cycle (experiments being performed during the light cycle) and were fed and watered ad libitum (Diet LM-485, Teklad, Madison, Wis.). Animals weighing 325-375 gms were fasted for ˜20 hours prior to experimentation.
Surgical preparation: The preparation used here was as described in Young et al., (Drug Dev Res. 37:231-248, 1996), but modified by the addition of unilateral ureteral cannulation. Anesthesia was induced with 5% halothane, maintained with 2% halothane during surgery and with 0.7 to 1% thereafter. […] Colonic temperature was measured and controlled using a thermistor probe/controller (Model 73A, YSI, Yellow Springs, Ohio) and a heated operating table. Signals for mean arterial pressure were periodically sampled at 1 Hz with 12 bit precision (DataTranslation DT2801A) and recorded (Labtech Notebook).
Observations are expressed as the percent of baseline, defined as the mean of measurements made in the 30 min prior to starting peptide or vehicle infusion. Data are expressed as mean±SEM. n=5-6.
Measurements: Samples of arterial blood (160 μl) were collected periodically and samples of urine were collected every 15 min. […] Unilateral urine flow was measured by weighing the 15-minute output of the cannulated ureter. […]

His Ala Glu Gly Thr Phe Thr Ser Asp Val Ser Ser Tyr Leu Glu Gly Gln Ala Ala Lys Glu Phe Ile Ala Trp Leu Val Lys Gly Arg-NH2 (HAEGTFTSDVSSYLEGQAAKEFIAWLVKGR-NH2; listed as Homo sapiens) [GLP-1]
systolic and diastolic blood pressure and heart rate [1]: increase | cardiac contractility (dP/dt) [2]: increase | mean arterial pressure [2]: increase | diuretic effect ([3]; intracerebroventricular administration): diuretic, antidypsogenic effect | diuretic effect ([3]; peripheral, intraperitoneal injection): did not have this effect | sodium excretion [4]: increased
